SMILES strings stand for the structures. pEC50: −log10 of the molar value. A value given as a limit tells only on which side of the number the result lay.

For one data set, the target named is T1, human GLP-1R (Homo sapiens, UniProt P43220).
T1 construct: HEK-293T cells overexpressing full-length human GLP-1R; FLAG (N); host or cells: HEK-293T
Put plainly: Human GLP1R agonist activity, intracellular cAMP accumulation. It counts as cell-based. As to conditions: HEK-293T cells overexpressing human GLP-1R, 1 hr, read-out: Human GLP1R cAMP EC50, HEK293T. Here is the method:
Cells are cultured per the manufacturer's protocol in DMEM with 10% fetal bovine serum and 1 μg/mL puromycin and stored in frozen aliquots to be used as assay ready cells. On the day of the assay, cells are removed from frozen storage, washed two times in 1× Kreb's Ringer Buffer (Zenbio, Research Triangle Park, N.C.), and re-suspended to a concentration of 4×10^5 cells/mL in 1× Kreb's Ringer Buffer. […] Cells are incubated with test compound for 1 hr at room temperature in the dark, and cAMP accumulation is measured using the Cisbio HiRange cAMP assay kit (Bedford, Mass.) per the manufacturer's protocol. Anti-cAMP antibody and d2-cAMP tracer reagents diluted in lysis/detection buffer are incubated in the dark for 1 hr, and results are measured on an Envision plate reader (Perkin Elmer, Waltham, Mass.). Data is normalized using 1 nm GLP-1 as 100% activity, and DMSO alone as 0% activity.

The next data set in a line: physchem. The method, boiled down: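 Solubility at pH 7.4 determined by stepwise addition of 200 mM phosphate buffer in 100 μL increments to 3 mg peptide, mixing briefly each time, until no insoluble material remained, then measured by liquid chromatography.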

T1 sequence (P43220 24-463): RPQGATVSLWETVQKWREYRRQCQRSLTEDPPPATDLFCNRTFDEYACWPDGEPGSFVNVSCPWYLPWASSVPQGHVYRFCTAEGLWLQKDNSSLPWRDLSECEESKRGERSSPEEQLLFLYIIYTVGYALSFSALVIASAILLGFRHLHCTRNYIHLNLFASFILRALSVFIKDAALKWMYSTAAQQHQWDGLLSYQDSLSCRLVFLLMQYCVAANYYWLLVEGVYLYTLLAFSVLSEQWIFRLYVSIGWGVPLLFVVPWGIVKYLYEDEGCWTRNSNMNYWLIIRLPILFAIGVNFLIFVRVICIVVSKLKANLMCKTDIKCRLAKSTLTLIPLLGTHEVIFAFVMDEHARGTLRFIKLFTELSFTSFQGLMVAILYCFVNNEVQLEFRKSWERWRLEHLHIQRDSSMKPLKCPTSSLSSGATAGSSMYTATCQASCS

By pEC50 is commonly meant the EC50 on a negative log10 scale, so that one unit is a factor of ten. As usually defined, the solubility is the dissolved amount per volume that the medium holds. On to `CC[C@H](C)[C@H](NC(=O)[C@H](Cc1ccccc1)NC(=O)[C@@H](NC(=O)CNC(=O)[C@H](CCC(=O)O)NC(=O)C(C)(C)NC(=O)[C@@H](N)Cc1ccc(O)cc1)[C@@H](C)O)C(=O)N[C@@H](CO)C(=O)N[C@@H](CC(=O)O)C(=O)N[C@@H](Cc1ccc(O)cc1)C(=O)N[C@@H](CO)C(=O)N[C@H](C(=O)NC(C)(C)C(=O)N[C@@H](CCCCNC(=O)CNC(=O)CNC(=O)CNC(=O)CNC(=O)CNC(=O)CCCCCCCCCCCCCCCCC(=O)O)C(=O)N[C@@H](CC(=O)O)C(=O)N[C@@H](CO)C(=O)NC(C)(C)C(=O)N[C@@H](C)C(=O)N[C@@H](CCC(N)=O)C(=O)NC(C)(C)C(=O)N[C@@H](CC(=O)O)C(=O)N[C@@H](Cc1ccccc1)C(=O)N[C@H](C(=O)N[C@@H](CC(N)=O)C(=O)N[C@@H](Cc1c[nH]c2ccccc12)C(=O)N[C@@H](CC(C)C)C(=O)N[C@@H](CC(C)C)C(=O)N[C@@H](C)C(=O)N[C@@H](CCC(N)=O)C(=O)N[C@@H](CCCNC(=N)N)C(=O)NCC(=O)O)C(C)C)[C@@H](C)CC` [Compound 150], for which the pEC50 at human GLP-1R is 7.87. Moreover, the solubility in “physchem” (pH 7.4) was ≥ 15 mg/mL; in “physchem” (pH 7.4, aqueous buffer) it was ≥ 30 mg/mL.
As to `CC[C@H](C)[C@H](NC(=O)[C@H](Cc1ccccc1)NC(=O)[C@@H](NC(=O)CNC(=O)[C@H](CCC(=O)O)NC(=O)C(C)(C)NC(=O)[C@@H](N)Cc1ccc(O)cc1)[C@@H](C)O)C(=O)N[C@@H](CO)C(=O)N[C@@H](CC(=O)O)C(=O)N[C@@H](Cc1ccc(O)cc1)C(=O)N[C@@H](CO)C(=O)N[C@H](C(=O)NC(C)(C)C(=O)N[C@@H](CCCCNC(=O)CNC(=O)CNC(=O)CNC(=O)CNC(=O)CNC(=O)CCCCCCCCCCCCCCCCC(=O)O)C(=O)N[C@@H](CC(=O)O)C(=O)N[C@@H](CO)C(=O)NC(C)(C)C(=O)N[C@@H](C)C(=O)N[C@@H](CCC(N)=O)C(=O)N[C@@H](C)C(=O)N[C@@H](CC(=O)O)C(=O)N[C@@H](Cc1ccccc1)C(=O)N[C@H](C(=O)N[C@@H](CC(N)=O)C(=O)N[C@@H](Cc1c[nH]c2ccccc12)C(=O)N[C@@H](CC(C)C)C(=O)N[C@@H](CC(C)C)C(=O)N[C@@H](C)C(=O)N[C@@H](CCC(N)=O)C(=O)N[C@@H](CCCNC(=N)N)C(=O)NCC(=O)O)C(C)C)[C@@H](C)CC` [Compound 152], the pEC50 on human GLP-1R is 7.48. The solubility is ≥ 15 mg/mL in the data set “physchem” (pH 7.4) and ≥ 30 mg/mL in “physchem” (pH 7.4, aqueous buffer).

The values are drawn from patent US20230143604A1, “QW DOSING OF GIP RECEPTOR AGONIST PEPTIDE COMPOUNDS AND USES THEREOF” (TAKEDA PHARMACEUTICAL COMPANY LIMITED, priority 2020, published 2023).
